# Data: ChEMBL document CHEMBL1149863, “Phenolic glycosides from berries of Pimenta dioica” (J Nat Prod, 2008)
# Assay: DPPH radical scavenging activity after 180 mins
# Type: functional
row,Compound,IC50 [µM]
1,CC1=CC[C@@H](C(C)(C)O[C@@H]2O[C@H](CO[C@@H]3O[C@@H](CO)[C@H](O)[C@H]3OC(=O)c3cc(O)c(O)c(O)c3)[C@@H](O)[C@H](O)[C@H]2O)CC1,10.5
2,C=CCc1cc(OC)c(O)c(O[C@@H]2O[C@H](COC(=O)/C=C/c3cc(OC)c(O)c(OC)c3)[C@@H](O)[C@H](O)[C@H]2O)c1,15
3,O=C(O)C[C@H]1CCC(=O)[C@@H]1C/C=C\CCO[C@@H]1O[C@H](COC(=O)c2cc(O)c(O)c(O)c2)[C@@H](O)[C@H](O)[C@H]1O,11.2
4,CC1=CC[C@H](C(C)(C)O[C@@H]2O[C@H](CO[C@@H]3O[C@@H](CO)[C@H](O)[C@H]3OC(=O)c3cc(O)c(O)c(O)c3)[C@@H](O)[C@H](O)[C@H]2O)CC1,11.6
5,C=CCc1ccc(O)c(OC)c1 [EUGENOL],27.5
6,O=C(O)c1cc(O)c(O)c(O)c1 [GALLIC ACID],8
7,COc1cc(/C=C/C(=O)O)cc(OC)c1O [SINAPINATE],25.7
